Measurements from patent publication US11191855B2, “1,7-diaryl-1,6-heptadiene-3,5-dione derivatives, methods for the production and use thereof” (UNIVERSITÄTSKLINIKUM REGENSBURG, priority 2015, dated 2021).

Columns and labels:
[1] = test system: S. aureus ATCC 25923; experiment: Comparative Example 3: phototoxicity by methods c.1) and c.2); format: cell-based, Staphylococcus aureus; conditions: either of the methods c.1) and c.2)
Procedure: (§1) A 2-hour culture was divided into 1800 μL aliquots. After centrifuging at 20° C., 830 rcf, 5 min (5417R centrifuge, Eppendorf, Hamburg, Germany), the pellets were re-suspended in phosphate buffer (Dulbeccos' Modified Phosphate Saline, DPBS, Sigma-Aldrich) with either 10 or 50 μM of the corresponding photosensitizer, wherein the final volume was kept at 1800 μL.
(§2) The irradiation was carried out under constant shaking (MTS4, IKA, Staufen, Germany, 175 rpm) from below on a LED array with maximum homogeneity of the lighting surface. All of the controls were shaken in the same manner. The technical data for the light source are shown in Table 2; the total dose of light applied was 33.8 J/cm^2.
(§3) The determination of the colony forming units (CFU) was carried out in accordance with the method published by Miles and Misra (Miles, A A; Misra, S S, Irwin, J O (1938 Nov.). “The estimation of the bactericidal power of the blood” The Journal of hygiene 38 (6): 732-49). In this regard, serial dilutions (1:10) of the corresponding bacterial suspension were produced in DPBS. 5×10 μL of each bacterial dilution was then dripped onto Todd-Hewitt plates (with broth, additional 1.5% agar (Agar-Agar, Kobe I, Roth, Karlsruhe, Germany) and incubated at 37° C. for 24 h. Next, the number of surviving colony forming units was determined. All of the tests were carried out four times. […]

[2] = test system: E. coli ATCC 25922; experiment: as above; format: cell-based, Escherichia coli; conditions: either of the methods c.1) and c.2)
Procedure: as §1, §2, §3

[3] = Comparative Example 3: stability and molar extinction coefficient in aqueous solution; format: physicochemical; conditions: comparable with natural curcumin
Procedure: In a further test, the stability and phototoxicity of the following compounds were tested.
Incubation with the compound (71) (SACUR-01d) and the bacterial strains S. aureus ATCC 25923 and E. coli ATCC 25922 employed as well as irradiation with electromagnetic radiation and determination of the phototoxicity were carried out as described in sections c.1) and c.2) above. […] The free OH groups contribute greatly to this photo-instability because due to them, the compound can readily transform into the quinoid mesomer, and thus cleavage of one half of the molecule with the formation of ferulic acids or substituted vanillins is facilitated.
Aqueous solution A: distilled water.
Aqueous solution B: isotonic sodium chloride solution (0.9% by weight NaCl).
Aqueous solution C: PBS buffer, pH 7.4 (composition: see Sambrook, J.; Maniatis, T.; Russel, D. W.: Molecular cloning: a laboratory manual. Cold Spring Harbor Laboratory Press; 3rd edition (2001)).

[4] = test system: E. coli ATCC 25922; experiment: Phototoxicity test c.2) (BlueV light source, emission maximum approx. 420 nm, CFU count); format: cell-based, Escherichia coli; conditions: light dose 15.7 J/cm^2, approx. 420 nm, 15 min at 17.5 mW/cm^2, vs reference control
Procedure: A sample of the bacterial cell Staphylococcus. aureus (ATCC number: 25923) or Escherichia. coli (ATCC number: 25922) was removed from a cryo-freeze culture and cultured under aerobic conditions at 37° C. and 175 rpm overnight in an orbital shaker (MAXQ4000, Thermo Scientific, Dubuque, Iowa, USA). Growth was carried out in 20 mL Todd-Hewitt broth (Carl Roth, Karlsruhe, Germany) supplemented with 0.3% of yeast extract (AppliChem, Darmstadt, Germany).
In a second experiment, the photosensitizers (PS) used were dissolved in Millipore water and adjusted to various concentrations. 25 μL of a bacterial suspension grown overnight (˜108/mL) was incubated with 25 μL of photosensitizer solution of the various concentrations at room temperature for 10 seconds in darkness in a 96-well plate.
Next, the suspension was irradiated for 5-20 minutes. For the irradiation, the light source BlueV from Waldmann (Villingen-Schwenningen, Germany) was used, which emits light from 380 to 480 nm (emission maximum at approximately 420 nm). The applied energy density was 17.5 mW/cm^2.
Each experiment was accompanied by three controls in order to exclude side effect of the irradiation/photosensitizer (PS) on the survival of the bacteria: (i) no PS, only light (=light control), (ii) no light, only PS (=dark control) and (iii) neither light nor PS (=reference control). The determination of the colony forming units (CFU) per mL was also carried out in accordance with the method published by Miles, Misra and Irwin described above in section c.1). All of the tests were carried out four times.
The photosensitizers (PS) SACUR-01a, SACUR-03 and SACUR-07 were tested against the bacterial strains S. aureus ATCC 25923 and E. coli ATCC 25922 (FIGS. 21-23). All of the remaining PS were tested against S. aureus ATCC 25923 (FIGS. 24-33). FIGS. 21-33 show the logarithmic reduction after illumination with respect to the reference control.
The average reference control (arithmetic mean with standard deviation) (no light, no PS) was 3.6×10^8/mL for E. coli. The logarithmic reduction after illumination is shown with respect to the reference control.

[5] = test system: S. aureus ATCC 25923; experiment: as above; format: cell-based, Staphylococcus aureus; conditions: Staphylococcus aureus, ATCC25923, light or radiation study, 5 min, irradiation 5 minutes, approx. 420 nm, 17.5 mW/cm^2, 5.3 J/cm^2, vs reference control
Procedure: A sample of the bacterial cell Staphylococcus. aureus (ATCC number: 25923) or Escherichia. coli (ATCC number: 25922) was removed from a cryo-freeze culture and cultured under aerobic conditions at 37° C. and 175 rpm overnight in an orbital shaker (MAXQ4000, Thermo Scientific, Dubuque, Iowa, USA). Growth was carried out in 20 mL Todd-Hewitt broth (Carl Roth, Karlsruhe, Germany) supplemented with 0.3% of yeast extract (AppliChem, Darmstadt, Germany). In a second experiment, the photosensitizers (PS) used were dissolved in Millipore water and adjusted to various concentrations. 25 μL of a bacterial suspension grown overnight ( 108/mL) was incubated with 25 μL of photosensitizer solution of the various concentrations at room temperature for 10 seconds in darkness in a 96-well plate. Next, the suspension was irradiated for 5-20 minutes. For the irradiation, the light source BlueV from […], Germany) was used, which emits light from 380 to 480 nm (emission maximum at approximately 420 nm). The applied energy density was 17.5 mW/cm^2. Each experiment was accompanied by three controls in order to exclude side effect of the irradiation/photosensitizer (PS) on the survival of the bacteria: (i) no PS, only light (=light control), (ii) no light, only PS (=dark control) and (iii) neither light nor PS (=reference control). […] All of the tests were carried out four times. […] All of the remaining PS were tested against S. aureus ATCC 25923 (FIGS. 24-33). FIGS. 21-33 show the logarithmic reduction after illumination with respect to the reference control. […] The irradiation period was 5 minutes (emission maximum at approximately 420 nm) for an applied intensity of 17.5 mW/cm^2, i.e. an applied light energy (dosage) of 5.3 J/cm^2. The average reference control (arithmetic mean with standard deviation) (no light, no PS) was 3.9×10^8/mL. The logarithmic reduction after illumination is shown with respect to the reference control.

[6] = natural curcumin, background statement; cited from earlier work

SMILES: CN(C)c1ccc(/C=C/C2=CC(=C/C=C3C=CC(=[N+](C)C)C=C3)/O[B-](F)(F)O2)cc1 [CRANAD-2, reference compound]
- Inactivation of S. aureus ATCC 25923 upon illumination in the presence of the compound [1]: could not be ascertained
- Inactivation of E. coli ATCC 25922 upon illumination in the presence of the compound [2]: could not be ascertained

SMILES: Cl.Cl.NCCOc1ccc(/C=C/C(=O)CC(=O)/C=C/c2ccc(OCCN)c(O)c2)cc1O [Curcumin 01d hydrochloride]
- Inactivation of S. aureus ATCC 25923 upon illumination in the presence of the compound [1]: Hardly any inactivation
- Stability in aqueous solution [3]: low stability
- Inactivation of E. coli ATCC 25922 upon illumination in the presence of the compound [2]: Hardly any inactivation

SMILES: CCCCCCCCOc1ccc(/C=C/C(=O)CC(=O)/C=C/c2ccc(OCCCCCCCC)c(OCCN)c2)cc1OCCN.Cl [Curcumin 07 hydrochloride]
- Effectiveness against E. Coli: Reduction in CFU in log10 at concentration of 10 μM ([4]; 10 μM): >1 log10
- Effectiveness against E. Coli: Reduction in CFU in log10 at concentration of 50 μM ([4]; 50 μM): >4 log10
- log reduction at 10 µM ([5]; 10 μM, read-out: Effectiveness against S. aureus: Reduction in CFU in log10 at concentration of 10 μM): > 2
- log reduction at 50 µM ([5]; 50 μM, read-out: Effectiveness against S. aureus: Reduction in CFU in log10 at concentration of 50 μM): > 5

SMILES: COc1cc(C=CC(=O)CC(=O)C=Cc2ccc(O)c(OC)c2)ccc1O [curcumin, 1,7-bis-(4-hydroxy-3-methoxyphenyl)-1,6-heptadiene-3,5-dione]
- Solubility in water [6]: low solubility in water
